What was measured:
SpAMT1;3 = conditions: NH4Cl 10-10,000 µM; pH 5.5 (MES/Tris); choline chloride 110 mM; membrane potential for the fit not told
SpAMT1;1 = conditions: NH4Cl 10-10,000 µM; pH 5.5 (MES/Tris); choline chloride 110 mM; membrane potential for the fit not told

Km (SpAMT1;3): 5.4 mM
Km (SpAMT1;1): 116 µM
SMILES: N [ammonium]

From PMC9824425, “Ammonium Uptake, Mediated by Ammonium Transporters, Mitigates Manganese Toxicity in Duckweed, Spirodela polyrhiza” (Plants, 2023)
